The source of these data is ChEMBL document CHEMBL4602709 (ACS Med Chem Lett, 2020).

The target in assay [1] is T1, Discoidin domain-containing receptor 2 (Homo sapiens, UniProt Q16832).
T1 sequence (Q16832 whole entry): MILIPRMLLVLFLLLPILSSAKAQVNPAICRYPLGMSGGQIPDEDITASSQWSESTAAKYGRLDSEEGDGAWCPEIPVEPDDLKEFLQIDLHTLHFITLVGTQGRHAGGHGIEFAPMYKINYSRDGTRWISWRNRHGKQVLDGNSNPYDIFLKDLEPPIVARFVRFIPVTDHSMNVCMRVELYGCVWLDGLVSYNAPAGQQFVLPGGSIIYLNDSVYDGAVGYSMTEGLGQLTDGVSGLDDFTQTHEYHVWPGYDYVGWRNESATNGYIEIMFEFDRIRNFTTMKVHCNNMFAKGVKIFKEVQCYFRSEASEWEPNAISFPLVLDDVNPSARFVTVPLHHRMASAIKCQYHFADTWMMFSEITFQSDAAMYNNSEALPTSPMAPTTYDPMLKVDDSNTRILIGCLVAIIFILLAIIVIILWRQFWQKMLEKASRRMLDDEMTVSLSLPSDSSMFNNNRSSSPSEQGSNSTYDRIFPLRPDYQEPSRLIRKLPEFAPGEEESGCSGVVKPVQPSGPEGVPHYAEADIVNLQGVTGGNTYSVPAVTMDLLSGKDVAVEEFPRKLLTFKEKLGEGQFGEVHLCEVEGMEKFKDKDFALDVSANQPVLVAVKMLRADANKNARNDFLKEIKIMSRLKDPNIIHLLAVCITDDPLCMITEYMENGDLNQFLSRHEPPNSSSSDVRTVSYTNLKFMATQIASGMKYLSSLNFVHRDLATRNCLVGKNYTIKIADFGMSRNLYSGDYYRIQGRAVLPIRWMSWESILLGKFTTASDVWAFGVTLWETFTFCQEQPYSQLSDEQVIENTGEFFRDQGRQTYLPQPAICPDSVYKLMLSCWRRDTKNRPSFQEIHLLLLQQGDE
Description: Inhibition of DDR2 (unknown origin) assessed as residual activity incubated for 5 mins in presence of [gamma-33ATP] by scintillation counting based radiometry assay.

The target in another assay is T2, Ephrin type-B receptor 2 (Homo sapiens, UniProt P29323).
T2 sequence (P29323 whole entry): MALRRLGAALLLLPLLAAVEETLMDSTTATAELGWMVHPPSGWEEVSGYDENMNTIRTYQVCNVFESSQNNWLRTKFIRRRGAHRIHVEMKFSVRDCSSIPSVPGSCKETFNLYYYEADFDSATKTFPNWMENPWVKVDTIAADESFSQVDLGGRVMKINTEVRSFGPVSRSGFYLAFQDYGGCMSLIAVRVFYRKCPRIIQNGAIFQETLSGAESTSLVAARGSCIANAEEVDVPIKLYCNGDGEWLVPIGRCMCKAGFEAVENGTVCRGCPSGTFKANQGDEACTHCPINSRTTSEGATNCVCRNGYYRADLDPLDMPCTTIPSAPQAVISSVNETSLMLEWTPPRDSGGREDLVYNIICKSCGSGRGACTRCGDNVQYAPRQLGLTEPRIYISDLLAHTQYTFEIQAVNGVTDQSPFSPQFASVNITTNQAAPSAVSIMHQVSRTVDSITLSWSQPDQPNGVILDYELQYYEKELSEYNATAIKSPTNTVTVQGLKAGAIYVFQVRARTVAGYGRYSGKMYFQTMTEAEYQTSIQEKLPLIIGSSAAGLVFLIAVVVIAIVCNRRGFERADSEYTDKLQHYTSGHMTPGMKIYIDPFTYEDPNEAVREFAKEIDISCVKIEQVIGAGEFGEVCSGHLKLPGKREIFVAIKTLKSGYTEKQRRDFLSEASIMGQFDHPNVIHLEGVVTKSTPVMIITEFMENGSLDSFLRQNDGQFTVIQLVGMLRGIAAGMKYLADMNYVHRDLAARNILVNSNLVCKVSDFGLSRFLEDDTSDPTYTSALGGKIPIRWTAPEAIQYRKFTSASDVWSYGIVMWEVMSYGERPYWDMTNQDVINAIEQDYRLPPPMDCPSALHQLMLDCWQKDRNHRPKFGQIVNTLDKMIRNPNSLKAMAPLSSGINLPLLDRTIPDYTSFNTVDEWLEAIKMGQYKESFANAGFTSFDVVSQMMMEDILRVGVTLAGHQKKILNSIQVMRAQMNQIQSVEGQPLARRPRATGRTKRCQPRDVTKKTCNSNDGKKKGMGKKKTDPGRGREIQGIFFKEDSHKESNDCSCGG
Kind of assay: Inhibition of EPHB2 (unknown origin) assessed as residual activity incubated for 5 mins in presence of [gamma-33ATP] by scintillation counting based radiometry assay.

The target in assay [2] is Tyrosine-protein kinase ABL1 (Homo sapiens, UniProt P00519). Description: Inhibition of human ABL1 assessed as residual activity using EAIYAAPFAKKK as substrate by [gamma-33P]-ATP assay.
Sequence of Tyrosine-protein kinase ABL1 (P00519 whole entry): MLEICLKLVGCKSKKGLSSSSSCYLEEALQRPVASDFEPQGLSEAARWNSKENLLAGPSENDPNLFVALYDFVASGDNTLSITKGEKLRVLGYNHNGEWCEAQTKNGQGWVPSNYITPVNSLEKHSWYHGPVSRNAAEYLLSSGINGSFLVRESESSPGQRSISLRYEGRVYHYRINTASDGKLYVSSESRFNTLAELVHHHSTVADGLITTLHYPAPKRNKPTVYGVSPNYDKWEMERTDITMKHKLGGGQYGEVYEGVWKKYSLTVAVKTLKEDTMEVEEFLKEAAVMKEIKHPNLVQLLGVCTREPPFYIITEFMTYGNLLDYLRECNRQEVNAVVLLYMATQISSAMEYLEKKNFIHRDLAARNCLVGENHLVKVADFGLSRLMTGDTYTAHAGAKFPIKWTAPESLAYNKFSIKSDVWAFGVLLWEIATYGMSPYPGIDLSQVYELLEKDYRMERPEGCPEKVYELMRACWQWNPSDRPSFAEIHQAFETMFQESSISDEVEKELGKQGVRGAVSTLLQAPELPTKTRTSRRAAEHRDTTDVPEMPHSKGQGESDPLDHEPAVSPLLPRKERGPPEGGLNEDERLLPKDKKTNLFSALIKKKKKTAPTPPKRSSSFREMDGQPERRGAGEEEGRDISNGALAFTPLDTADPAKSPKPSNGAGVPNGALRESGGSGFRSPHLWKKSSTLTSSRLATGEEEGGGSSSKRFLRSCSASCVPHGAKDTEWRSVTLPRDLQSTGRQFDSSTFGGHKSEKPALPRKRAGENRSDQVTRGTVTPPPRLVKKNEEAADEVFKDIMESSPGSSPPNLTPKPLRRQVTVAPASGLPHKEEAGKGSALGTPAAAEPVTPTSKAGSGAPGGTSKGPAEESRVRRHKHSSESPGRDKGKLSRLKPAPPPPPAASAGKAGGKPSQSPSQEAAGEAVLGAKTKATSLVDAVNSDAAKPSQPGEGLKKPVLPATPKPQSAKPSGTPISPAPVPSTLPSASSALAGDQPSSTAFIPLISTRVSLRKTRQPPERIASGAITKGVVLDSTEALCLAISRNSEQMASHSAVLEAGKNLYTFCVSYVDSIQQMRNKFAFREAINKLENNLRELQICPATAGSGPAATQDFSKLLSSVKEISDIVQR
The target of assay [3] is T3, Mitogen-activated protein kinase kinase kinase kinase 3 (Homo sapiens, UniProt Q8IVH8).
T3 sequence (Q8IVH8 whole entry): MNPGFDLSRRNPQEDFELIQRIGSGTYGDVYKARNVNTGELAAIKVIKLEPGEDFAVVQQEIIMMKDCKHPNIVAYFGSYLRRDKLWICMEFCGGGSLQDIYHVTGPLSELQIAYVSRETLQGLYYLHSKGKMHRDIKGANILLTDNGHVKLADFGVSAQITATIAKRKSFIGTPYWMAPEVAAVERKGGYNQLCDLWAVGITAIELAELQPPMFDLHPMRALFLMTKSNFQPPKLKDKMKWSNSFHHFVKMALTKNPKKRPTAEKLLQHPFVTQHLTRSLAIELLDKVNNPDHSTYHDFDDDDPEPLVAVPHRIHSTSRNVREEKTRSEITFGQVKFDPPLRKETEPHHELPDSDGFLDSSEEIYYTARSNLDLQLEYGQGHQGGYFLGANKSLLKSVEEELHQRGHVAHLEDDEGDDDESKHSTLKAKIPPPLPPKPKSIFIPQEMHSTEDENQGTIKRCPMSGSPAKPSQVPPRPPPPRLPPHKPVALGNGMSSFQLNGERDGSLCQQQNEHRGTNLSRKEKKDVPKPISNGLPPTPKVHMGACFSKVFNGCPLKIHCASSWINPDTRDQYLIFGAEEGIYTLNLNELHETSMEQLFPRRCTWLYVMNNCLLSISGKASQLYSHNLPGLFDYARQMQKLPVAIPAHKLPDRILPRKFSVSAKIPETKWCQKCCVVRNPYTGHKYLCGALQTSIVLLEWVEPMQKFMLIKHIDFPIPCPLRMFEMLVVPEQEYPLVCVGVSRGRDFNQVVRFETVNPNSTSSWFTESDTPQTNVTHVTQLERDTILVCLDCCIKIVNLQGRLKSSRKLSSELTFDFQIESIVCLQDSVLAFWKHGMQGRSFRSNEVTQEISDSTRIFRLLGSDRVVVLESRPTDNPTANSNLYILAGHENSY
Kind of assay: Inhibition of MAP4K3 (unknown origin) assessed as residual activity incubated for 5 mins in presence of [gamma-33ATP] by scintillation counting based radiometry assay.

The target in assay [4] is Voltage-gated inwardly rectifying potassium channel KCNH2 (Homo sapiens, UniProt Q12809). Kind of assay: Inhibition of human ERG incubated for 4 hrs by competitive fluorescence tracer binding based assay.
Sequence of Voltage-gated inwardly rectifying potassium channel KCNH2 (Q12809 whole entry): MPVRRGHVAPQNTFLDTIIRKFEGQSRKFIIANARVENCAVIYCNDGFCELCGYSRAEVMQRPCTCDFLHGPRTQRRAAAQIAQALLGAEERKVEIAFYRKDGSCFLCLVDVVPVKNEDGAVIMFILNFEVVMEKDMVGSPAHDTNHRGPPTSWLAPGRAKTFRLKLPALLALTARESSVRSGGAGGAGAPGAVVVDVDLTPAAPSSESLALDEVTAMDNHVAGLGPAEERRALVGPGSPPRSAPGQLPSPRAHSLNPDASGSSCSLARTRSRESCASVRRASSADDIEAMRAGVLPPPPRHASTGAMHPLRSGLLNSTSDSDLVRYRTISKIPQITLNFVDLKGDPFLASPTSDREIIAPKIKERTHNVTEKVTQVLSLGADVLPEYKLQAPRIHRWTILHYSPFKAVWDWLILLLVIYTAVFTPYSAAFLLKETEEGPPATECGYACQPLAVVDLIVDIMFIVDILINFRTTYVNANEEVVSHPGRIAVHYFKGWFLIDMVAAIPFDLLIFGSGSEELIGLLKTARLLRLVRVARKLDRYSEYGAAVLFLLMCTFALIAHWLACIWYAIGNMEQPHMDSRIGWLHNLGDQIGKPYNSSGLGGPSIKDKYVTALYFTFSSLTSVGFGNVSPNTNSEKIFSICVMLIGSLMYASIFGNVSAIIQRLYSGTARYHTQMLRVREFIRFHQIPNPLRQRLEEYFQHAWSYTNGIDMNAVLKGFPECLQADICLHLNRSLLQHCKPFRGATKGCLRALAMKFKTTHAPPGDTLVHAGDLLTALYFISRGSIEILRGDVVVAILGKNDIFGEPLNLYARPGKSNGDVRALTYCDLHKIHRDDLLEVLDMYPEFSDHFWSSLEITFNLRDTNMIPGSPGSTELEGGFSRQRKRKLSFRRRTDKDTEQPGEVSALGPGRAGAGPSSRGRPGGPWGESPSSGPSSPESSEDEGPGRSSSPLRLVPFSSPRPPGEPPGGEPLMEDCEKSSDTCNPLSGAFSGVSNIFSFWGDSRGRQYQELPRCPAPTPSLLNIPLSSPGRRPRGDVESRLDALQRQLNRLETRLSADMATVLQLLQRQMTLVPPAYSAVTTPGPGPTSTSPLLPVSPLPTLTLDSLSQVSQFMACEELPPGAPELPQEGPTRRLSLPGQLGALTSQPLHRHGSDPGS

The IC50 is the point on the concentration scale where inhibition reaches its midpoint. Consider `Cc1ccc(C(=O)Nc2ccc(CN3Cc4cn[nH]c4C3)c(Cl)c2)cc1C#Cc1cnc2cccnn12`, for which the half-maximal inhibitory concentration (IC50) came to 286 nM in assay [1]; 70.8 nM at Ephrin type-B receptor 2; 8.31 nM in assay [2]; 240 nM in assay [3]; 12100 nM in assay [4].
